Data taken from patent publication US12605653B2, “Anionic switchable hydrophilicity solvents” (QUEEN'S UNIVERSITY AT KINGSTON, priority 2022, dated 2026).
Values belong to the compound of their own block, whether it stands above or below them.

Columns and labels:
[1] = binary mixtures: worse actor; cited from earlier work
[2] = binary mixtures: worse actor; cited from earlier work; remark: listed apart in the source
[3] = NOEC or ECx; binary mixtures: worse actor; cited from earlier work
[4] = binary mixtures: score of the worse actor of the two; cited from earlier work
[5] = specific target organ toxicity, single exposure; binary mixtures: worse actor; cited from earlier work
[6] = system: fish; details: 96 hr LC50 (fish); binary mixtures: worse actor; cited from earlier work
[7] = binary mixtures: score of the worse actor of the two; cited from earlier work; remark: listed apart in the source
[8] = Switching behaviour of ASHS systems under elevated pressures of CO2; assay type: physicochemical; details: EHA:NaOH:H2O combinations that did not become biphasic upon 1 bar of CO2
Method: The sight gauge was kept at a constant temperature (20° C.) in a water bath. The solutions were maintained under stirring due to a magnetic stir bar controlled by a magnetic stir plate. To maximize the stirring, the vessel was placed on its side (horizontal position). The mixture was then pressurized to 10 bar of CO2 in the sight gauge. In order to determine the volume of the phases obtained, measurements of the height of the water-rich and the carboxylic acid phase were obtained using a cathetometer while the vessel was in a vertical position. The relationship between height and internal volume on the sight gauge is known. The vessel was then slowly depressurized. The phases were collected using a glass pipette.

[9] = EHA as solvent
[10] = Evaluation of the switching behaviour of ASHS systems (carboxylic acid/base/water) under air and 1 bar of CO2; assay type: physicochemical; details: for Behaviour of the system after CO2 addition / pH under 1 bar of CO2 / pH under air: 20° C.
Method: Base solutions were prepared by combining the desired base and water (mass for components measured in an analytical scale) into either a 10 or 25 mL graduated cylinder (containing a magnetic stir bar) depending on the final volume of the mixture obtained. The carboxylic acid (mass measured using an analytical balance prior to addition) being studied was added to the base solution, and the mixture was mixed with the help of a magnetic stir plate. The amount of base and water used were selected based on the acid:base:water ratio desired. Experiments were carried out using stoichiometric and substoichiometric amounts of the base relative to the number of mols of acid added. In addition, the quantity of water used was adjusted based on the acid:water mass ratio desired. A typical experiment would contain 1 g of the carboxylic acid; between 0.4 and 1 mol of base per mol of acid; and a water mass varying from 1 to 9.5 g.
During a typical experiment, CO2 would be added for approximately 2 h at atmospheric pressure. At the end of the 2 h, the sparge tube would be removed, and the number and volume of the phases obtained would be recorded. The pH was once again recorded. For mixtures with only 1 phase, the pH of that phase was recorded. While for mixtures with 2 phases, the pH of the aqueous phase was recorded.
In the systems in which the base:acid mole ratio and the water:acid mass ratio were being studied, a slight modification from this method was used. The acid being tested (1 g) was mixed with 1 g of water and the required amount of NaOH (based on the acid:base molar ratio desired) to prepare the mixture. […]
The base solution was then added to the carboxylic acid, and the next steps followed the procedure previously described.

[11] = binary mixtures: score of the worse actor of the two; cited from earlier work; remark: listed apart in the source
[12] = base 3DMAP, base:acid mole ratio 0.50:1, H2O:acid mass ratio 2.5:1
[13] = base DMEA, base:acid mole ratio 0.55:1, H2O:acid mass ratio 2.5:1
[14] = base Jeffamine D-230 (two moles acid per mole D-230), H2O:acid mass ratio 12:1
[15] = base Jeffamine D-230 (two moles acid per mole D-230), H2O:acid mass ratio 15:1
[16] = base MDEA, base:acid mole ratio 0.55:1, H2O:acid mass ratio 2.5:1
[17] = base TEA, MDEA, DMEA or 3-DMAP, base:acid mol ratio 1:1, H2O:acid mass ratio 1:1
[18] = base TEA, MDEA, DMEA or 3-DMAP, base:acid mol ratio 1:1, H2O:acid mass ratio 2:1
[19] = base TEA, MDEA, DMEA or 3-DMAP, base:acid mol ratio 1:1, H2O:acid mass ratio 6:1
[20] = base TEA, MDEA, DMEA or 3-DMAP, base:acid mol ratio 1:1, H2O:acid mass ratio 15:1
[21] = base TEA, base:acid mole ratio 0.55:1, H2O:acid mass ratio 2.5:1
[22] = substoichiometric aqueous NaOH, 0.6 to 0.7 equivalents of base

Structure (SMILES): CCCCN(CCO)CCCC [Bu2NCH2CH2OH, N,N-dibutylethanolamine]
- Eye irritation, GHS category [1]: 1
- Skin irritation, GHS category [2]: 1C
- Chronic aquatic toxicity, GHS category [3]: 3 (category 3 (H412) means 0.1 < NOEC or ECx ≤ 1)
- Acute toxicity (dermal), GHS category [4]: 4 (category 4 (H312) means 1000 < LD50 ≤ 2000 mg/kg)
- Organ toxicity, GHS category [5]: 3
- Acute aquatic toxicity, GHS category [6]: 3 (category 3 (H402) means 10 < 96 hr LC50 (fish) ≤ 100 mg/L)
- Acute toxicity (oral), GHS category [7]: 4 (category 4 (H302) means 300 < LD50 ≤ 2000 mg/kg)

- Behaviour upon the addition of 10 bar of CO2 [8]: successful switchable behaviour
- maximum EPS loading that still allows the next steps [9]: 5 wt %
- pH before the addition of CO2 ([10]; 0.8:1 NaOH:EHA mole ratio, 3:1 H2O:EHA mass ratio): 7.2
- Behaviour of the system ([10]; 0.8:1 NaOH:EHA mole ratio, 3:1 H2O:EHA mass ratio, 1 bar CO2): did not present a switchable behaviour
- pH before the addition of CO2 ([10]; 0.9:1 NaOH:EHA mole ratio, 1:1 H2O:EHA mass ratio): 7.5
- pH before the addition of CO2 ([10]; 0.9:1 NaOH:EHA mole ratio, 3:1 H2O:EHA mass ratio): 7.2
- pH before the addition of CO2 ([10]; 0.9:1 NaOH:EHA mole ratio, 4:1 H2O:EHA mass ratio): 7.1
- pH before the addition of CO2 ([10]; 0.9:1 NaOH:EHA mole ratio, 5:1 H2O:EHA mass ratio): 7.2
- Behaviour of the system ([10]; 0.9:1 NaOH:EHA mole ratio, 5:1 H2O:EHA mass ratio, 1 bar CO2): presented a switchable behaviour
- Behaviour of the system ([10]; 0.9:1 NaOH:EHA mole ratio, H2O:EHA mass ratio from 1:1 to 3:1, 1 bar of CO2): do not present a switchable behaviour
- Behaviour of the system ([10]; 0.9:1 NaOH:EHA mole ratio, extra water beyond 4:1 H2O:EHA mass ratio): become biphasic under air
- pH under air, lowest value once extra water is added ([10]; 0.9:1 NaOH:EHA mole ratio, more water than 4:1, pH decreases from 7.1): 6.6
- Behaviour of the system ([10]; 2.5:1 H2O:EHA mass ratio, 0.65 NaOH:EHA mol ratio, 1 bar CO2): switchable behaviour
- Behaviour of the system ([10]; 2.5:1 H2O:EHA mass ratio, 0.70 NaOH:EHA mol ratio, 1 bar CO2): remains monophasic after CO2 addition
- Behaviour of the system after CO2 addition ([10]; base 3DMAP, base:acid mole ratio 0.50:1, H2O:acid mass ratio 2.5:1, 1 bar CO2, threshold 50 vol % recovered): Phase separation above 50
- pH under 1 bar of CO2 [10, 12]: 6.64
- pH under air [10, 12]: 6.53
- Behaviour of the system after CO2 addition ([10]; base DMEA, base:acid mole ratio 0.55:1, H2O:acid mass ratio 2.5:1, 1 bar CO2, threshold 50 vol % recovered): Phase separation above 50
- pH under 1 bar of CO2 [10, 13]: 6.69
- pH under air [10, 13]: 6.57
- Behaviour of the system after CO2 addition ([10]; base Jeffamine D-230 (two moles acid per mole D-230), H2O:acid mass ratio 12:1, 1 bar CO2, partial = acid recovered smaller than mass added): Partial phase separation
- pH under 1 bar of CO2 [10, 14]: 6.94
- pH under air [10, 14]: 6.98
- Behaviour of the system after CO2 addition ([10]; base Jeffamine D-230 (two moles acid per mole D-230), H2O:acid mass ratio 15:1, 1 bar CO2, partial = acid recovered smaller than mass added): Partial phase separation
- pH under 1 bar of CO2 [10, 15]: 6.74
- pH under air [10, 15]: 8.34
- Phase behaviour upon addition of 1 bar of CO2 ([10]; base Jeffamine D-230, TEA, MDEA, DMEA or 3DMAP, base:acid mole ratio 1:1, water:acid mass ratio 15:1 and other ratios): no phase separation was observed
- Behaviour of the system after CO2 addition ([10]; base MDEA, base:acid mole ratio 0.55:1, H2O:acid mass ratio 2.5:1, 1 bar CO2, threshold 50 vol % recovered): No phase separation
- pH under 1 bar of CO2 [10, 16]: 6.61
- pH under air [10, 16]: 6.50
- Behaviour of the system ([10]; base NaOH, 2:1 H2O:acid mass ratio, 1 bar CO2, narrow range of base:acid ratio): successful switchable behaviour
- Behaviour of the system ([10]; base NaOH, carboxylic acid:H2O mass ratio 1:2.5, carboxylic acid:NaOH mol ratio 1:0.6): Switchable
- Behaviour of the system after CO2 addition ([10]; base TEA, MDEA, DMEA or 3-DMAP, base:acid mol ratio 1:1, H2O:acid mass ratio 1:1, 1 bar CO2): No phase separation
- pH under 1 bar of CO2 [10, 17]: 7.50-8.05
- pH under air [10, 17]: 7.50-8.30
- Behaviour of the system after CO2 addition ([10]; base TEA, MDEA, DMEA or 3-DMAP, base:acid mol ratio 1:1, H2O:acid mass ratio 2:1, 1 bar CO2): No phase separation
- pH under 1 bar of CO2 [10, 18]: 7.20-7.60
- pH under air [10, 18]: 8.00-8.15
- Behaviour of the system after CO2 addition ([10]; base TEA, MDEA, DMEA or 3-DMAP, base:acid mol ratio 1:1, H2O:acid mass ratio 6:1, 1 bar CO2): No phase separation
- pH under 1 bar of CO2 [10, 19]: 6.20-6.70
- pH under air [10, 19]: 7.50-8.10
- Behaviour of the system after CO2 addition ([10]; base TEA, MDEA, DMEA or 3-DMAP, base:acid mol ratio 1:1, H2O:acid mass ratio 15:1, 1 bar CO2): No phase separation
- pH under 1 bar of CO2 [10, 20]: 6.60-6.80
- pH under air [10, 20]: 6.80-7.90
- Behaviour of the system after CO2 addition ([10]; base TEA, base:acid mole ratio 0.55:1, H2O:acid mass ratio 2.5:1, 1 bar CO2): No phase separation
- pH under 1 bar of CO2 [10, 21]: 6.53
- pH under air [10, 21]: 6.48
- Phase behaviour upon addition of CO2 [10, 22]: phase separation was observed
- Phases under air [10, 22]: one phase
Structure (SMILES): CCCCC(CC)C(=O)O (centres unmarked) [EHA, 2-ethylhexanoic acid]
- Behaviour of the system ([10]; base NH4OH, 2:1 H2O:acid mass ratio, 1 bar CO2): phase switchable behaviour was not observed
- Behaviour of the system ([10]; base pyridine, 2:1 H2O:acid mass ratio): the acid remains as a separate phase under air

Structure (SMILES): CN(C)C1CCCCC1 [CyNMe2]
- Acute toxicity (dermal), GHS category [4]: 3 (Category 3 (H311) means 200 < LD50 ≤ 1000 mg/kg)
- Acute aquatic toxicity, GHS category [6]: 1 (Category 1 (H400) means 96 hr LC50 (fish) ≤ 1.0 mg/L)
- Acute toxicity (oral), GHS category [7]: 3 (Category 3 (H301) means 50 < LD50 ≤ 300 mg/kg)
- Acute toxicity (inhalation), GHS category [11]: 3 (category 3 (H331) means 2 < LC50 ≤ 10 mg/L)
